Values quoted from earlier work as cited in US20080175827A1, “PHOSPHOLIPASE C ZETA MEDIATED OOCYTE ACTIVATION, COMPOSITIONS FOR USE THEREIN, AND ASSAYS FOR DETECTING AND IDENTIFYING AGENTS FOR TREATING MALE INFERTILITY” (Michigan State University, priority 2006, published 2008).

How the values were obtained:
IP3R = details: mice; Jellerette et al. 2000
bovine eggs = details: bovine oocytes; Malcuit and Fissore 2007

SMILES: [Cl-].[Cl-].[Sr+2] [strontium chloride]
- IP3R downregulation (IP3R): does not downregulate IP3R
- [Ca2+]i oscillations (bovine eggs): does not induces [Ca^2+]i oscillations
